{"source": "patent US8022040B2", "about": "“Hydroxyapatite-binding peptides for bone growth and inhibition” (The Regents of the University of California, priority 2004, dated 2011)", "key": {"[1]": {"conditions": "for HA nucleation templated by peptide deposited from cosolvent: 1.5 mg/ml in acetonitrile and water (1:1/v:v), dried on grid, soaked in mineral precursor solutions; for HA nucleation templated by peptide solution in 100% water: compared to peptides 1 and 2", "method": "(CaCl2 (10 mM)+Na2HPO4 (5 mM)→Ca10(OH)2(PO4)6). The inset photographs show the X-ray diffraction patterns of the crystals at each timepoint.\nIn order to investigate the nucleation ability of these binding peptides, the major 12-mer linear binding peptide was synthesized by solid phase synthetic method and subjected to HA-mineralization on holey carbon film-coated TEM grids according to J. D. Hartgerink, E. Beniash, S. I. Stupp, Science, 294, 1684 (2001), which is hereby incorporated by reference.\nIn order to study kinetics of HA nucleation by this peptide suspension, time dependence nucleation was investigated by preparing parallel TEM samples where HA was nucleated for 30 min (FIG. 20, Panel C), 1 hr (FIG. 20, Panel D), and 2 hrs (FIG. 20, Panel E) by same concentration peptide suspension."}, "[2]": {"assay": "Phage titering assay counting phage eluted from HA", "assay_type": "binding", "conditions": "FIG. 12 Panel B; comparing to the wild type viruses / the other three peptides; TBST (0.5%) wash, glycine-HCl elution", "method": "(§1) Single crystalline and polycrystalline HA were freshly etched to remove carbonated contaminates and incubated with 1×10^10 pfu of phage of W4a-4-14 (Single 14), W4a-4-15 (single 15), HA-4-3 (poly 3), wild type (wild) phages suspension for these assays.\n(§2) As described in Example 1, 4 mg of single crystalline HA was freshly etched to remove carbonated contaminates and incubated with 1×10^10 pfu of phage of constrained W4a-4-14 (Single 14), W4a-4-15 (single 15), HA-4-3 (poly 3), wild type (wild) phages suspension. After washing off with TBST (0.5%) ten times, the bound phage was eluted using glycine-HCl […] and titered to count number of bound phage."}, "[3]": {"assay": "Flow cytometric measurement of fluorescence intensity of binding viruses on HA surfaces", "method": "as §1, §2\nAfter 30 minutes incubation of 4 mg/ml of HA crystals with ˜10^10 pfu/ml of each phage, CLP7, CLP12, or the wild type phages, the HA crystals were washed ten times with Tris-buffered saline solution (pH 7.5) contained 0.5% Tween 20. The phage bound to HA surfaces was labeled by R-phycoerythrin-conjugated monoclonal pVIII antibody (Amersham Pharmacia Biotech, UK), and the fluorescence images were acquired (Nikon fluorescence microscope, Japan) and the fluorescence intensity was quantified by FACS Calibur flow cytometer (BD Biosciences, Calif.)."}, "[4]": {"conditions": "1.5 mg/ml peptide, two hours mineralization, 5 mM Na2HPO4 + 10 mM CaCl2"}}, "note": "Like-named read-outs stand apart in the source and are kept apart here. Positions of bridges follow the written chain, without caps; N, C: chain ends. No end group written: not given here."}
{"substance": "NIYHPTPPQSVH-GGGK-biotin [control peptide 1]", "values": [{"measurement": "HA deposition templated by peptide (TEM/SAED)", "setting": "[1]; [4]", "value": "amorphous calcium phosphate deposition without any clear SAED patterns"}]}
{"substance": "APYHPTIPASVH-GGGK-biotin [peptide 5]", "values": [{"measurement": "HA nucleation templated by peptide deposited from cosolvent", "setting": "[1]", "value": "nucleation phenomena similar to those templated by HA binding peptides"}, {"measurement": "HA nucleation templated by peptide solution in 100% water", "setting": "[1]", "value": "relatively bigger amorphous calcium phosphate aggregation"}]}
{"substance": "Cys Asn Tyr Pro Thr Leu Lys Ser Cys (CNYPTLKSC; disulfide 1-9 (inferred); also: displayed on M13 phage) [single 14]", "values": [{"measurement": "strength of HA binding relative to comparators", "setting": "[2]", "value": "almost three times stronger"}, {"measurement": "binding to HA surfaces, rank among viruses tested", "setting": "[3]; phage-displayed peptides single 14, single 15, poly 3 and wild type", "value": "bind best to HA surfaces among all viruses tested"}]}
{"substance": "NPYHPTIPQSVH-GGGK-biotin [peptide 3]", "values": [{"measurement": "HA nucleation templated by peptide deposited from cosolvent", "setting": "[1]", "value": "nucleation phenomena similar to those templated by HA binding peptides"}, {"measurement": "HA nucleation templated by peptide solution in 100% water", "setting": "[1]", "value": "reduced HA-nucleation ability with different morphology of HA crystals"}]}
{"substance": "NPYHPTIPQSVH-GGGK-biotin [single 15-biotin]", "values": [{"measurement": "HA deposition templated by peptide (TEM/SAED)", "setting": "[1]; [4]", "value": "well crystallized HA deposition"}, {"measurement": "HA deposition templated by peptide (TEM/SAED)", "setting": "[1]; 15 mg/ml peptide, two hours, same amount of CaCl2 and Na2HPO4", "value": "well-crystallized HA crystals"}, {"measurement": "HA nucleation, time dependence (TEM/SAED)", "setting": "[1]; 30 min", "value": "amorphous deposition of calcium phosphate"}, {"measurement": "HA nucleation, time dependence (TEM/SAED)", "setting": "[1]; after 2 hours", "value": "fully developed HA crystals were nucleated"}]}
{"substance": "NPDHPDIPQDVH-GGGK-biotin [Control peptide 2]", "values": [{"measurement": "HA deposition templated by peptide (TEM/SAED)", "setting": "[1]; [4]", "value": "amorphous deposition of calcium phosphate without any clear diffraction patterns"}]}
{"substance": "NPYHPTIPQSVH [Single 15]", "values": [{"measurement": "improved binding affinity (fluorescence intensity of binding viruses on HA surfaces)", "setting": "[3]; flow cytometry, FIG. 12 Panel A, phage-displayed peptide compared to wild type phage, 1×10^10 pfu", "value": "around 50%"}]}
{"substance": "NPYAPTIPQSVA-GGGK-biotin [peptide 4]", "values": [{"measurement": "HA nucleation templated by peptide deposited from cosolvent", "setting": "[1]", "value": "nucleation phenomena similar to those templated by HA binding peptides"}, {"measurement": "HA nucleation templated by peptide solution in 100% water", "setting": "[1]", "value": "relatively bigger amorphous calcium phosphate aggregation"}]}
